Assay results reported in patent publication US6310243A, “Iodinated x-ray contrast media” (Nycomed Imaging AS, priority 1994, dated 2001).
Values belong to the compound of their own block, whether it stands above or below them.

How the values were obtained:
Assay type in all cases: physicochemical
[1] = Viscosity in aqueous solution at 20° C.
Description: Table 2 also gives calculated value for viscosity in mPas for concentration of 400 mg I/ml and 300 mg I/ml (at 20° C.).

Viscosity at 37° C. = assay: Viscosity at 37° C.
Water solubility = details: noted in Table 2 in place of a concentration

SMILES: CC(O)C(=O)Nc1c(I)c(CO)c(I)c(N(CC(O)CO)C(=O)C(C)O)c1I (stereo not shown) [Example 11, N,N'-Bis(2-hydroxypropionyl)-N-(2,3-dihydroxypropyl)-3,5-diamino-2,4,6-triiodobenzylalcohol]
Viscosity 20° C. ([1]; 407 mgI/ml): 16 mPas

SMILES: CN(CC(O)CO)C(=O)c1c(I)c(CO)c(I)c(NC(=O)CO)c1I (stereo not shown) [Example 44, 5-Hydroxyacetamido-3-hydroxymethyl-N-methyl-N-(2,3-dihydroxypropyl)-2,4,6-triiodobenzamide]
Viscosity at 400 mgI/ml (CALCULATED) ([1]; 400 mgI/ml, calculated): 10.8 mPas
Viscosity 20° C. ([1]; 481 mgI/ml): 24 mPas

SMILES: OCc1cc(OCC(O)CO)c(I)c(OCC(O)CO)c1I (stereo not shown) [Example 78, 3,5-Bis-(2,3-dihydroxypropyloxy)-2,4-diiodobenzyl alcohol]
solubility (Water solubility): low

Now from value to compound:

Viscosity at 350 mgI/ml (CALCULATED) (Viscosity at 37° C.): 6.1
Viscosity 37° C. (Viscosity at 37° C.; 376 mgI/ml): 8.9
SMILES: O=C(NC(CO)C(O)CO)c1c(I)c(CO)c(I)c(NC(=O)C(O)C(O)CO)c1I (stereo not shown) [Example 81, 5-[N'-(2,3,4-Trihydroxybutanoyl)-amino]-3-hydroxymethyl-N-(1,3,4-trihydroxybut-2-yl)-2,4,6-triiodobenzamide]

Viscosity at 350 mgI/ml (CALCULATED) (Viscosity at 37° C.): 5.2
Viscosity 37° C. (Viscosity at 37° C.; 444 mgI/ml): 11
SMILES: O=C(NCC(O)CO)c1c(I)c(CO)c(I)c(NC(=O)C(O)C(O)CO)c1I (stereo not shown) [Example 80, 5-[N'-(2,3,4-Trihydroxybutanoyl)amino]-3-hydroxymethyl-N-(2,3-dihydroxypropyl)-2,4,6-triiodobenzamide]

Viscosity at 350 mgI/ml (CALCULATED) (Viscosity at 37° C.): 5.9
Viscosity 37° C. (Viscosity at 37° C.; 379 mgI/ml): 6.9
SMILES: O=C(Nc1c(I)c(CO)c(I)c(NC(=O)C(O)C(O)CO)c1I)C(O)C(O)CO (stereo not shown) [Example 79, N,N'-Bis-(2,3,4-trihydroxybutanoyl)-3,5-diamino-2,4,6-triiodobenzyl alcohol]

Viscosity 20° C. ([1]; 348 mgI/ml): 7.8 mPas
Viscosity 20° C. ([1]; 446 mgI/ml): 22 mPas
Viscosity 20° C. ([1]; 537 mgI/ml): 75 mPas
SMILES: O=C(Nc1c(I)c(CO)c(I)c(N(CC(O)CO)C(=O)C(O)CO)c1I)C(O)CO (stereo not shown) [Example 15, N,N'-Bis(2,3-dihydroxypropionyl)-N-(2,3-dihydroxyoronyl)-3,5-diamino-2,4,6-triiodobenzylalcohol]
